According to article PMC6562366 (Molecular Therapy Oncolytics, 2019):

Biological target: PIM-2 (Homo sapiens, UniProt Q9P1W9)
Test: radiometric filter-binding kinase assay, recombinant kinase, dose-response
Assay type: biochemical

Chain of PIM-2 (Q9P1W9 whole entry): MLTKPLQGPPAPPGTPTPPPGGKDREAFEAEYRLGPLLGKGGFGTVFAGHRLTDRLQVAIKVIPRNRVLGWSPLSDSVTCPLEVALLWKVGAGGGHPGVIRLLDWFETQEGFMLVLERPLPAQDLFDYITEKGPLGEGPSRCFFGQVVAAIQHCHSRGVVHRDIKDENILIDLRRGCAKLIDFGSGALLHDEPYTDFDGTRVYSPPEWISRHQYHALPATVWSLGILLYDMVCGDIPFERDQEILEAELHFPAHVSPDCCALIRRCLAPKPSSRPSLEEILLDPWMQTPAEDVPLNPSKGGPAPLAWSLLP

Work on `C/C(O)=C(\C#N)C(=O)Nc1ccc(C(F)(F)F)cc1` [Ter, Teriflunomide] yielded an IC50 of 255 µM.
